Data taken from publication PMC6651387, “Fine-Tuning the Activation Mode of an 1,3-Indandione-Based Ruthenium(II)-Cymene Half-Sandwich Complex by Variation of Its Leaving Group” (Molecules, 2019).
Where two headings read alike, the source gives them in different places.

Legend:
[1] = tested on: CH1/PA-1 (ovarian teratocarcinoma) cells; design: method as in PMID 25032896; conditions: MTT assay, 96 h; cited from earlier work
[2] = tested on: SW480 (colon cancer) cells; design: method as in PMID 25032896; conditions: MTT assay, 96 h; cited from earlier work
[3] = tested on: A549 (non-small cell lung cancer) cells; design: method as in PMID 25032896; conditions: MTT assay, 96 h; cited from earlier work
SW480 cells [4] = tested on: SW480 cells; design: method as in PMID 27055943; conditions: exposure time 2 h, platinum; cited from earlier work
[5] = Lipophilicity by RP-UHPLC capacity factors (logkw, Φ0); type: physicochemical
Description: It stands to reason that the higher the lipophilicity, the higher the cell accumulation; as far as passive diffusion is concerned, the higher efficiency with which normal cell function is compromised. As a consequence, lipophilicity is an important factor in drug development, described by the partition coefficient logP, which is routinely determined by the distribution of a compound in 1-octanol/water. However, 1-octanol, a solvent said to closely mimic the solubilizing behavior of cell membranes, forms emulsions with water. Additionally, the shake-flask method, seemingly easy, requires long sample preparation, has a low sample throughput, and lacks reproducibility, as it hinges on exact temperature control and consistent equilibration time allotted for every analyte. The time-consuming nature of this method may also lead to decomposition of the analyte. A concentration-, flow rate-, and column length-independent method is the determination of the capacity factor (k) via HPLC. The capacity factor is a measure for the equilibrium concentration between a polar phase (eluent) and an apolar phase (C18 column coating) and higher resemblance to the partition coefficient in […]. […] The percentage of methanol in the eluent at which logk is equal to zero is Φ0 [27, 28, 29].
The capacity factors k were determined with the use of an RP-UHPLC. The necessary chromatograms were recorded with a Dionex UltiMate 3000 RS UHPLC system (Thermo Fisher Scientific, Bedford, MA, USA) controlled by the Dionex Chromeleon 7.2 software. […] The capacity factors were then calculated as logk = log[(tR − t0)/t0], where tR and t0 are the retention times of the analyte and the dead time marker, respectively, at the respective MeOH:0.1% FA in water ratio. Every retention time was determined in isocratic mode for the different eluent ratios to obtain capacity factors in the linear range (−0.5 ≤ logk ≤ 1.5) in triplicate. A plot of logk against the % of the organic eluent yielded logkw (intercept) and S (slope). Φ0, the factor most closely resembling logP, was then determined as follows: Φ0 = −logkw/S [28].

[6] = tested on: CH1/PA-1 (ovarian teratocarcinoma) cells; test: MTT antiproliferative assay, CH1/PA-1; type: cell-based, human; conditions: exposure time 96 h, means ± standard deviations
Experimental: CH1/PA-1 (ovarian teratocarcinoma) cells were a generous gift from Lloyd R. Kelland (CRC Centre for Cancer Therapeutics, Institute of Cancer Research, Sutton, UK). A549 (non-small cell lung cancer), SW480, and HCT116 (both colon cancer) cells were kindly provided by the Institute of Cancer Research, Department of Medicine I, Medical University of Vienna, Austria. All cell lines were grown as monolayer cultures in Eagle’s MEM supplemented with L-glutamine (4 mM), sodium pyruvate (1 mM) and 1% (v/v) non-essential amino acid solution (all from Sigma-Aldrich) and 10% (v/v) heat-inactivated fetal calf serum (FCS, BioWest) in 75-cm^2 flasks (Starlab) at 37 °C under a humidified atmosphere containing 5% CO2 in air.
Antiproliferative activity of the compounds was determined with the colorimetric MTT assay (MTT = 3-(4,5-dimethyl-2-thiazolyl)-2,5-diphenyl-2H-tetrazolium bromide). CH1/PA-1, HCT116, SW480, and A549 cells with cell numbers of 1 × 10^3, 1.5 × 10^3, 2 × 10^3, and 3 × 10^3, respectively, were seeded in 100 μL per well into 96-well microculture plates (Starlab). After 24 h, test compounds were dissolved in DMSO (Fisher Scientific), serially diluted in complete MEM not to exceed a final DMSO content of 0.5% (v/v) and added in 100 μL per well. After 96 h, the drug-containing medium was replaced with 100 µL of RPMI 1640/MTT mixture, i. e., 6 parts of RPMI 1640 medium (Sigma-Aldrich; supplemented with 10% heat-inactivated fetal bovine serum and 4 mM L-glutamine), 1 part of MTT solution in phosphate-buffered saline (5 mg/mL; both from Sigma-Aldrich). After incubation for 4 h, the MTT-containing medium was replaced with 150 μL DMSO per well to dissolve the formazan product formed by viable cells. Optical densities at 550 nm (and at the reference wavelength of 690 nm) were measured with a microplate reader (ELx808, Bio-Tek). The IC50 values relative to untreated controls were interpolated from concentration–effect curves. At least three independent experiments were performed, each with triplicates per concentration level.

[7] = tested on: SW480 (colon cancer) cells; test: MTT antiproliferative assay, SW480; type: cell-based, human; conditions: exposure time 96 h, means ± standard deviations
Experimental: (§1) CH1/PA-1 (ovarian teratocarcinoma) cells were a generous gift from Lloyd R. Kelland (CRC Centre for Cancer Therapeutics, Institute of Cancer Research, Sutton, UK). A549 (non-small cell lung cancer), SW480, and HCT116 (both colon cancer) cells were kindly provided by the Institute of Cancer Research, Department of Medicine I, Medical University of Vienna, Austria. All cell lines were grown as monolayer cultures in Eagle’s MEM supplemented with L-glutamine (4 mM), sodium pyruvate (1 mM) and 1% (v/v) non-essential amino acid solution (all from Sigma-Aldrich) and 10% (v/v) heat-inactivated fetal calf serum (FCS, BioWest) in 75-cm^2 flasks (Starlab) at 37 °C under a humidified atmosphere containing 5% CO2 in air. […] After 24 h, test compounds were dissolved in DMSO (Fisher Scientific), serially diluted in complete MEM not to exceed a final DMSO content of 0.5% (v/v) and added in 100 μL per well. After 96 h, the drug-containing medium was replaced with 100 µL of RPMI 1640/MTT mixture, i. e., 6 parts of RPMI 1640 medium (Sigma-Aldrich; supplemented with 10% heat-inactivated fetal bovine serum and 4 mM L-glutamine), 1 part of MTT solution in phosphate-buffered saline (5 mg/mL; both from Sigma-Aldrich). After incubation for 4 h, the MTT-containing medium was replaced with 150 μL DMSO per well to dissolve the formazan product formed by viable cells. Optical densities at 550 nm (and at the reference wavelength of 690 nm) were measured with a microplate reader (ELx808, Bio-Tek). The IC50 values relative to untreated controls were interpolated from concentration–effect curves. At least three independent experiments were performed, each with triplicates per concentration level.

[8] = tested on: HCT116 (colon cancer) cells; test: MTT antiproliferative assay, HCT116; type: cell-based, human; conditions: exposure time 96 h, means ± standard deviations
Experimental: as §1

[9] = tested on: A549 (non-small cell lung cancer) cells; test: MTT antiproliferative assay, A549; type: cell-based, human; conditions: exposure time 96 h, means ± standard deviations
Experimental: as §1

SW480 cells [10] = test: Cellular accumulation by ICP-MS quantification of ruthenium (or platinum); type: cell-based, human; conditions: 50 µM, exposure time 2 h, ICP-MS of ruthenium
Experimental: Ruthenium accumulation was measured by means of inductively coupled plasma mass spectrometry (ICP-MS) upon 2 h exposure of SW480 cells to 50 µM of each compound.
Cellular accumulation of the compounds was studied based on a previously described method with modifications as follows: SW480 cells with a number of 1.8 × 10^5 per well were seeded into 12-well plates in aliquots of 1 mL complete MEM and incubated at 37 °C for 24 h. Then, cells were exposed for 2 h at 37 °C to 50 μM solutions of the test compounds (containing 0.5% DMSO) in 500 µL of fresh complete MEM upon exchange of the medium. Afterwards, cells were washed three times with PBS, and lyzed with 0.4 mL sub-boiled HNO3 per well for 1 h at room temperature. Ruthenium content was quantified by ICP-MS using an Agilent 7500ce quadrupole ICP-MS instrument (Agilent Technologies, Waldbronn, Germany) equipped with a CETAC ASX-520 autosampler (Nebraska, USA) and a MicroMist nebulizer. Ruthenium and indium standards were obtained from CPI International (Amsterdam, The Netherlands). The instrument was equipped with nickel cones and operated at an RF power of 1560 W, with argon as the plasma gas (15 L/min), carrier gas (1.0–1.1 L/min) and make-up gas (0.1–0.2 L/min). The Agilent MassHunter software package (Workstation Software, Version B.01.01, Build 123.11, Patch 4, 2012) was used for data processing. Results are based on at least three independent experiments, each comprising triplicate samples. The instrument was tuned on a daily basis for maximum sensitivity and doubly charged species as well as oxide rates were <5%.

[11] = MeOH, conventional desk lamp, UV-VIS 250–700 nm
Experimental: Light activation studies were performed on the same UV-VIS spectrometer. Fourty microliters of solutions (MeOH) were irradiated with a conventional desk lamp, and every 2.5–10 min (depending on progress) a wavelength scan (250–700 nm) was recorded.

Row | Compound | IC50 [1] | IC50 [2] | IC50 [3] | cellular accumulation, fg Ru or Pt/Cell (SW480 cells [4]) | Intercept logkw ([5]; RP-UHPLC, MeOH/0.1% formic acid in water, 25 °C, logk extrapolated to 100% water) | Φ0 ([5]; percentage of methanol in the eluent at which logk is zero, Φ0 = −logkw/S) | Slope S ([5]; slope of logk against % organic eluent (MeOH)) | IC50 [6] | IC50 [7] | IC50 [8] | IC50 [9] | cellular accumulation, fg Ru or Pt/Cell (SW480 cells [10]) | time until no more change upon light irradiation (completion of the reaction) [11]
1 | N.N.[Cl][Pt][Cl] [Cisplatin] | 0.077 ± 0.006 µM | 3.3 ± 0.2 µM | 6.2 ± 1.2 µM | 12 ± 2 fg Ru or Pt/Cell | – | – | – | – | – | – | – | – | –
2 | Cc1ccc(C(C)C)cc1.F[P-](F)(F)(F)(F)F.O=C1C(=C(NCc2ccccc2)[O][Ru+])C(=O)c2ccccc21.c1ccncc1 [1f] | – | – | – | – | 5.25 | 62.07 | −0.0845 | 8.2 ± 2 µM | 6.3 ± 1.1 µM | 20.2 ± 6.4 µM | 22.1 ± 3.2 µM | 231 ± 93 fg Ru or Pt/Cell | 75 min
